From US20250195530A1, “POLQ INHIBITORS” (ASTRAZENECA AB, priority 2022, published 2025)

What was measured:
DLD-1 cells = experiment: Inhibition of proliferation, DLD-1 BRCA2 wt control (Cell Titre Glo 3D); assay type: cell-based; conditions: Homo sapiens, DLD-1, 168 h, DLD-1 BRCA2 wt cells, 7 days; read-out: POLQ PD Prolif Lumin DLD1 mean pIC50 (converted)
Method in brief: (§1)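 Read-out: CellTiter-Glo 3D luminescence, day 7 for wt DLD-1, day 12 for BRCA2−/−, about 8-9 population doublings each. Seeding 1,500 or 3,000 cells/mL respectively. Dose range 10 μM–0.51 nM, 3-fold, 10 points, with re-dosing on day 6. IC50 from curve fit.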

DLD-1 BRCA2−/− cells = experiment: Homologous recombination synthetic lethal inhibition of proliferation, DLD-1 BRCA2-/- (Cell Titre Glo 3D); assay type: cell-based; conditions: Homo sapiens, DLD-1, 288 h, DLD-1 BRCA2−/− cells, 12 days; read-out: POLQ PD Prolif Lumin BRCA2 −/− mean pIC50 (converted)
Method in brief: as §1

Row | IC50 (DLD-1 cells) [nM] | SMILES | IC50 (DLD-1 BRCA2−/− cells) [nM]
1 | > 10000 | CC1(Oc2ncnc3c2nc(-c2ccc(OCCN4CCNCC4)cc2Cl)n3Cc2ncccc2C#N)CC1 [Example K11, 2-((8-(2-chloro-4-(2-(piperazin-1-yl)ethoxy)phenyl)-6-(1-methylcyclopropoxy)-9H-purin-9-yl)methyl)nicotinonitrile] | 2000
2 | > 10000 | Cc1scnc1Cn1c(-c2ccc(OCCN3CCNCC3)cc2Cl)nc2c(OC3(C)CC3)ncnc21 [Example K12, 4-((8-(2-chloro-4-(2-(piperazin-1-yl)ethoxy)phenyl)-6-(1-methylcyclopropoxy)-9H-purin-9-yl)methyl)-5-methylthiazole] | 1580
3 | > 10000 | Cc1ccnc(Cn2c(-c3ccc(OCCN4CCNCC4)cc3Cl)nc3c(OC4(C)CC4)ncnc32)c1 [Example L2, 8-(2-chloro-4-(2-(piperazin-1-yl)ethoxy)phenyl)-6-(1-methylcyclopropoxy)-9-((4-methylpyridin-2-yl)methyl)-9H-purine] | 398
4 | > 10000 | Cc1cnc(Cn2c(-c3ccc(OCCN4CCNCC4)cc3Cl)nc3c(OC4(C)CC4)ncnc32)s1 [Example L3, 2-((8-(2-chloro-4-(2-(piperazin-1-yl)ethoxy)phenyl)-6-(1-methylcyclopropoxy)-9H-purin-9-yl)methyl)-5-methylthiazole] | 398
5 | > 10000 | CC1(Oc2ncnc3c2nc(-c2ccc(OCCN4CCNCC4)cc2Cl)n3Cc2cc(C#N)ccn2)CC1 [Example L4, 2-((8-(2-chloro-4-(2-(piperazin-1-yl)ethoxy)phenyl)-6-(1-methylcyclopropoxy)-9H-purin-9-yl)methyl)isonicotinonitrile] | 1000
6 | > 10000 | COc1ccnc(Cn2c(-c3ccc(OCCN4CCNCC4)cc3Cl)nc3c(OC4(C)CC4)ncnc32)c1 [Example L5, 8-(2-chloro-4-(2-(piperazin-1-yl)ethoxy)phenyl)-9-((4-methoxypyridin-2-yl)methyl)-6-(1-methylcyclopropoxy)-9H-purine] | 1580
7 | > 10000 | CC1(Oc2ncnc3c2nc(-c2ccc(OCCN4CCNCC4)cc2Cl)n3Cc2ncc(Cl)s2)CC1 [Example L6, 5-chloro-2-((8-(2-chloro-4-(2-(piperazin-1-yl)ethoxy)phenyl)-6-(1-methylcyclopropoxy)-9H-purin-9-yl)methyl)thiazole] | 398
8 | > 10000 | CC1(Oc2ncnc3c2nc(-c2ccc(OCCN4CCNCC4)cc2Cl)n3Cc2csc(Cl)n2)CC1 [Example L7, 2-chloro-4-((8-(2-chloro-4-(2-(piperazin-1-yl)ethoxy)phenyl)-6-(1-methylcyclopropoxy)-9H-purin-9-yl)methyl)thiazole] | 1580
9 | > 10000 | Cc1ccc(Cn2c(-c3ccc(OCCN4CCNCC4)cc3Cl)nc3c(OC4(C)CC4)ncnc32)nc1 [Example L8, 8-(2-chloro-4-(2-(piperazin-1-yl)ethoxy)phenyl)-6-(1-methylcyclopropoxy)-9-((5-methylpyridin-2-yl)methyl)-9H-purine] | 2000
10 | > 10000 | Cc1cccnc1Cn1c(-c2ccc(OCCN3CCNCC3)cc2Cl)nc2c(OC3(C)CC3)ncnc21 [Example L9, 8-(2-chloro-4-(2-(piperazin-1-yl)ethoxy)phenyl)-6-(1-methylcyclopropoxy)-9-((3-methylpyridin-2-yl)methyl)-9H-purine] | 3160
11 | > 10000 | COc1cccnc1Cn1c(-c2ccc(OCCN3CCNCC3)cc2Cl)nc2c(OC3(C)CC3)ncnc21 [Example L10, 8-(2-chloro-4-(2-(piperazin-1-yl)ethoxy)phenyl)-9-((3-methoxypyridin-2-yl)methyl)-6-(1-methylcyclopropoxy)-9H-purine] | 3160
12 | > 10000 | CC1(Oc2ncnc3c2nc(-c2ccc(N4CC(N)C4)cc2Cl)n3Cc2ccccc2)CC1 [Example M1, 1-(4-(9-benzyl-6-(1-methylcyclopropoxy)-9H-purin-8-yl)-3-chlorophenyl)azetidin-3-amine] | 501
13 | 5010 | CC1(Oc2ncnc3c2nc(-c2ccc(N4CCC(N)CC4)cc2Cl)n3Cc2ccccc2)CC1 [Example M2, 1-(4-(9-benzyl-6-(1-methylcyclopropoxy)-9H-purin-8-yl)-3-chlorophenyl)piperidin-4-amine] | 316
14 | 7940 | CC1(Oc2ncnc3c2nc(-c2ccc(N4CCNC(=O)C4)cc2Cl)n3Cc2ccccc2)CC1 [Example M3, 4-(4-(9-benzyl-6-(1-methylcyclopropoxy)-9H-purin-8-yl)-3-chlorophenyl)piperazin-2-one] | 501
15 | > 10000 | CC1(Oc2ncnc3c2nc(-c2ccc(/C=C/C(=O)O)cc2Cl)n3Cc2ccccc2)CC1 [Example M4, (E)-3-(4-(9-benzyl-6-(1-methylcyclopropoxy)-9H-purin-8-yl)-3-chlorophenyl)acrylic acid] | 631
16 | > 10000 | CC1(Oc2ncnc3c2nc(-c2ccc(OCCN4CCNCC4=O)cc2Cl)n3Cc2ccccc2)CC1 [Example M5, 1-(2-(4-(9-benzyl-6-(1-methylcyclopropoxy)-9H-purin-8-yl)-3-chlorophenoxy)ethyl)piperazin-2-one] | 100
17 | > 10000 | CN(C)C(=O)c1ccc(-c2nc3c(OC4(C)CC4)ncnc3n2Cc2ccccc2)c(Cl)c1 [Example N1, 4-(9-benzyl-6-(1-methylcyclopropoxy)-9H-purin-8-yl)-3-chloro-N,N-dimethylbenzamide] | 200
18 | > 10000 | CNC(=O)c1ccc(-c2nc3c(OC4(C)CC4)ncnc3n2Cc2ccccc2)c(Cl)c1 [Example N2, 4-(9-benzyl-6-(1-methylcyclopropoxy)-9H-purin-8-yl)-3-chloro-N-methylbenzamide] | 251
19 | > 10000 | CC1(Oc2ncnc3c2nc(-c2ccc(C(=O)N4CCNCC4)cc2Cl)n3Cc2ccccc2)CC1 [Example N3, (4-(9-benzyl-6-(1-methylcyclopropoxy)-9H-purin-8-yl)-3-chlorophenyl)(piperazin-1-yl)methanone] | 794
20 | > 10000 | CC1(Oc2ncnc3c2nc(-c2ccc(C(N)=O)cc2Cl)n3Cc2ccccc2)CC1 [Example N4, 4-(9-benzyl-6-(1-methylcyclopropoxy)-9H-purin-8-yl)-3-chlorobenzamide] | 200
21 | 3980 | CC1(Oc2ncnc3c2nc(-c2ccc(CN4CCCC4)cc2Cl)n3Cc2ccccc2)CC1 [Example N5, 9-benzyl-8-(2-chloro-4-(pyrrolidin-1-ylmethyl)phenyl)-6-(1-methylcyclopropoxy)-9H-purine] | 100
22 | 3980 | CC1(Oc2ncnc3c2nc(-c2ccc(CN4CCNCC4)cc2Cl)n3Cc2ccccc2)CC1 [Example N6, 9-benzyl-8-(2-chloro-4-(piperazin-1-ylmethyl)phenyl)-6-(1-methylcyclopropoxy)-9H-purine] | 100
23 | 6310 | CC1(Oc2ncnc3c2nc(-c2ccc(CN)cc2Cl)n3Cc2ccccc2)CC1 [Example N7, (4-(9-benzyl-6-(1-methylcyclopropoxy)-9H-purin-8-yl)-3-chlorophenyl)methanamine] | 631
24 | > 10000 | COc1ccc(-c2nc3c(OC4(C)CC4)ncnc3n2Cc2ccccc2)c(Cl)c1 [Example N8, 9-Benzyl-8-(2-chloro-4-methoxyphenyl)-6-(1-methylcyclopropoxy)-9H-purine] | 251
